Read-outs that look alike come from different tables or passages of the source.
Assays:
[1] = target: T1, human Cav3.2 channels (Homo sapiens, UniProt O95180); assay: Intracellular calcium concentration measurement (Fluo-4 AM) in stable cells expressing human Cav3.2 channels, buffer A / buffer B; format: cell-based
T1 construct: expressed in transfected cells; host or cells: HEK293 cells (ATCC No. CRL-1573), plasmid pcDNA3.1(+)
Summary of the method: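 State-dependent Cav3.2 inhibition compared in two buffers differing in potassium equilibrium potential (−92 vs −110 mV). Stable HEK293 line, Fluo-4 dye; compound 15 min, room temperature, dark, then KCl addition (83.8 or 91.8 mM) triggers calcium influx read 10 s; IC50 from peak increment over baseline.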

[2] = target: T1, human Cav3.2 channels; assay: Electrophysiological evaluation, whole-cell patch-clamp with automatic patch-clamp system; format: cell-based; conditions: for inhibition at 0.3 µM: holding potential −80 mV, read-out: Cav3.2 channel current inhibition ratio at 0.3 μM of test compound (holding potential −80 mV)
Method: Electrophysiological Evaluation
Stable cell line expressing human Cav3.2 channels, which had been produced by Test method (1) of Example 140, was seeded in a 10-cm dish using DMEM medium containing 10% FBS, and the cells were cultured for 24 hours or longer under the conditions of 37° C. and 5% CO2. The cells were detached using Accutase and were used after being suspended in ice-cold extracellular solution. The Cav3.2 channel current was measured by the Whole-cell patch-clamp method using an automatic patch-clamp system (Port-a-Patch; Nanion Technologies GmbH, EPC-10; HEKA Elektronik GmbH, Patchmaster; HEKA Elektronik GmbH) and buffers described below. Measurement of the Cav3.2 channel current was carried out at room temperature, and the measurement conditions were set as follows: holding potential: −80 mV, depolarization potential: −20 mV, depolarization time: 100 msec, and depolarization frequency: 10 sec. The Cav3.2 channel current was defined as the peak value of the inward current observed when depolarization occurred at −20 mV.
For a test compound, a DMSO solution was diluted 1,000 times with extracellular solution, and thus a solution having an intended concentration was produced. The test compound was applied using an extracellular perfusion system (Nanion Technologies GmbH) until the Cav3.2 channel current was stabilized, and five concentrations at the maximum from the low-concentration side were cumulatively applied. The inhibition ratio of the test compound was calculated from the current value immediately before the application of the test compound and the change rate of the Cav3.2 channel current after the application of the test compound (conditions for a holding potential of −80 mV: test compound concentration of 0.3 μM, conditions for a holding potential of −100 mV: test compound concentration of 3 μM).
Extracellular solution: 135 mM NaCl, 4 mM KCl, 1 mM MgCl2, 5 mM CaCl2, 5 mM D-Glucose, and 10 mM HEPES, pH 7.4
Internal solution for electrode: 10 mM NaCl, 10 mM HEPES, 50 mM CsCl, 60 mM CsF, and 20 mM EGTA, pH 7.2

[3] = Tables 2 to 6, buffer A, equilibrium potential of potassium −92 mV, read-out: Inhibitory action of buffer A (inactivated state)
[4] = Table 1, buffer A, equilibrium potential of potassium −92 mV, read-out: Inhibitory action of buffer A (inactivated state)
[5] = Table 1, buffer B, equilibrium potential of potassium −110 mV, read-out: Inhibitory action of buffer B (resting state or closed state)

T1 sequence (O95180 whole entry): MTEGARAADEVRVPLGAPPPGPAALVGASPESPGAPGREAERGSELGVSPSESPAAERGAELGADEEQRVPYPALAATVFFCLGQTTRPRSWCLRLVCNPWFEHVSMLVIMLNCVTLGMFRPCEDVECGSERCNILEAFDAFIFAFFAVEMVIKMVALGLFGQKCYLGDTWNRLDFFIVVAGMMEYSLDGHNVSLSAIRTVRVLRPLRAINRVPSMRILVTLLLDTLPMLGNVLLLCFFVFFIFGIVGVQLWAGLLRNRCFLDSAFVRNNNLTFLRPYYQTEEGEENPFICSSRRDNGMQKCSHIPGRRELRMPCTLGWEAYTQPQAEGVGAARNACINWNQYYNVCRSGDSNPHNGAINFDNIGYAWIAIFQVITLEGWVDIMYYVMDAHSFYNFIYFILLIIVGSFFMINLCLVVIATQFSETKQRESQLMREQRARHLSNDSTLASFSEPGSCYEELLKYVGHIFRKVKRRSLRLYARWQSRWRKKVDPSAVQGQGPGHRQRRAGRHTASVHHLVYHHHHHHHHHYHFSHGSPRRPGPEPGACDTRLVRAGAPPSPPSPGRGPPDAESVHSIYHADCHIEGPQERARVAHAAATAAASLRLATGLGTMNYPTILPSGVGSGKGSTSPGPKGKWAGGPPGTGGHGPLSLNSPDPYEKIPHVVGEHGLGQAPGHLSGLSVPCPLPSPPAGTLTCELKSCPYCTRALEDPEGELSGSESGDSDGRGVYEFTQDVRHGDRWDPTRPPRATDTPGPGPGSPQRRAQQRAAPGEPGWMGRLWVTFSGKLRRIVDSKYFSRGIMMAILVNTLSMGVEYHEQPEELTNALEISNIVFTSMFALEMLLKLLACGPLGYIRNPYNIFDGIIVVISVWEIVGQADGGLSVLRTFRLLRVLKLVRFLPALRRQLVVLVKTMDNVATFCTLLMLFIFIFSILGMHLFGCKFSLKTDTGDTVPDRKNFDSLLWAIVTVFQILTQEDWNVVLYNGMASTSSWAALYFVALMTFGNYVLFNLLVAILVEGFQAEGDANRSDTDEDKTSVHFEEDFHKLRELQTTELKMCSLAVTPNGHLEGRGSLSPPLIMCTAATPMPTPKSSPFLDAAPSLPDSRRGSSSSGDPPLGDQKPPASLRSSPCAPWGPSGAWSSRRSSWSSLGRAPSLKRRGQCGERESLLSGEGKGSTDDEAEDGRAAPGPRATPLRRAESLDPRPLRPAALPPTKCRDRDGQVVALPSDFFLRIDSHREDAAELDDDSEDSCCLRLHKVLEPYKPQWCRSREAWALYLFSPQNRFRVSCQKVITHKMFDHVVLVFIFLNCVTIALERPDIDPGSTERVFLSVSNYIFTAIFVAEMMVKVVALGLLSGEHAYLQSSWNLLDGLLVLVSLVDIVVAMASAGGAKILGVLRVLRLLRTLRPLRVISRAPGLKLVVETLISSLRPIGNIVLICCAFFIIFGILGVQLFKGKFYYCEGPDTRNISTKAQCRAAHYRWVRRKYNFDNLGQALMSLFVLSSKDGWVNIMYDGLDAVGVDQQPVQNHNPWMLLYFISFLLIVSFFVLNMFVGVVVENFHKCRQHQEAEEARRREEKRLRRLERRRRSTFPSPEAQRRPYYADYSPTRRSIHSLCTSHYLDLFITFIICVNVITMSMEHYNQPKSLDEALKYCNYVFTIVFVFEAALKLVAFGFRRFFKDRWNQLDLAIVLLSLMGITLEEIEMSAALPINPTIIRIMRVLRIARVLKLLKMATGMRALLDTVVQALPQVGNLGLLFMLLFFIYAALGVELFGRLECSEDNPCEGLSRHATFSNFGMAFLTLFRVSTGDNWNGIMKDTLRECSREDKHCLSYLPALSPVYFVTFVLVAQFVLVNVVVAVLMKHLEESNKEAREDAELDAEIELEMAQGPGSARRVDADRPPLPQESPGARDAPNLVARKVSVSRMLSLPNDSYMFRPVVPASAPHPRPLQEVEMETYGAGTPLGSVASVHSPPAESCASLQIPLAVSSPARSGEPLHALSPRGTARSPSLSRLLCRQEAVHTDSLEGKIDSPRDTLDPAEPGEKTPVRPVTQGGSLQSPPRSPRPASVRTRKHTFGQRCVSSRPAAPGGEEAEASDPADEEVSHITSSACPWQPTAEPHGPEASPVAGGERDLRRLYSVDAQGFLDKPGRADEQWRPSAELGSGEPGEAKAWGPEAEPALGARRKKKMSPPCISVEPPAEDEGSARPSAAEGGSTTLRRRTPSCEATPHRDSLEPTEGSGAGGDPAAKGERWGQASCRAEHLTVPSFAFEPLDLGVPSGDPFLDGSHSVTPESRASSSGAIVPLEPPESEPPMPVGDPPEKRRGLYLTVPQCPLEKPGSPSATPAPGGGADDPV

Row | Structure (SMILES) | IC50 [1, 3] [nM] | inhibition at 0.3 µM [2] [%] | IC50 [1, 4] [nM] | IC50 [1, 5] [nM] | Cav3.2 channel current inhibition ratio at 3 μM of test compound (holding potential −100 mV) [2] [%]
1 | C[C@@H](NC(=O)C1CC1c1nc(-c2ccccn2)c[nH]1)c1ccc(OCC(F)(F)F)s1 (mixture of isomers) [Example 39, Trans-2-(4-(pyridin-2-yl)-1H-imidazol-2-yl)-N—((R)-1-(5-(2,2,2-trifluoroethoxy)thiophen-2-yl)ethyl)cyclopropane-1-carboxamide] | 100 to 1000 | 50 |  |  | 
2 | C[C@@H](NC(=O)C1CC1c1nc2ccccc2[nH]1)c1cnc(OCC(F)(F)F)s1 (single isomer, unassigned) [Example 8A] |  | 1 | 100 to 1000 | > 10000 | 13
3 | C[C@@H](NC(=O)C1CC1c1ccc2ccccc2n1)c1ccc(OCC(F)(F)F)s1 (single isomer, unassigned) [Example 34A] | 100 to 1000 | 58 |  |  | 
4 | C[C@@H](NC(=O)C1CC1c1c[nH]c2ccccc12)c1cnc(OCC(F)(F)F)s1 (single isomer, unassigned) [Example 49] | ≤ 100 | 35 |  |  | 
5 | C[C@@H](NC(=O)C1CC1c1ncc2ccccn12)c1cc2cc(F)ccc2o1 (single isomer, unassigned) [Example 117A] | 100 to 1000 | 70 |  |  | 
6 | C[C@@H](NC(=O)[C@@H]1CCN(CC(=O)Nc2ccccc2)C1)c1ccc(OCC(F)(F)F)s1.Cl [Example 17, hydrochloride] |  | 64 | 100 to 1000 | 1000 to 10000 | 
7 | C[C@@H](NC(=O)[C@H]1C[C@@H]1c1nc2ccccc2[nH]1)c1ccc(C(=O)OC(C)(C)C)s1 [Example 25A, Trans-5-((1R)-1-(2-(1H-benzo[d]imidazol-2-yl)cyclopropane-1-carboxamido)ethyl)thiophene-2-carboxylic acid tert-butyl ester] | 100 to 1000 | 59 |  |  | 54
8 | CC(C)[C@@H](NC(=O)[C@H]1C[C@@H]1c1nc2ccccc2[nH]1)c1ccc(C(F)(F)F)s1 [Example 50, (1S,2S)-2-(1H-benzo[d]imidazol-2-yl)-N—((R)-2-methyl-1-(5-(trifluoromethyl)thiophen-2-yl)propyl)cyclopropane-1-carboxamide] | 100 to 1000 | 43 |  |  | 
9 | Cc1nc(OCC(F)(F)F)sc1[C@@H](C)NC(=O)[C@H]1C[C@@H]1c1nc2ccccc2[nH]1 [Example 51, (1S,2S)-2-(1H-benzo[d]imidazol-2-yl)-N—((R)-1-(4-methyl-2-(2,2,2-trifluoroethoxy)thiazol-5-yl)ethyl)cyclopropane-1-carboxamide] | 100 to 1000 | 33 |  |  | 
10 | C[C@@H](NC(=O)[C@H]1C[C@@H]1c1nc2ccccc2[nH]1)c1ccc2ccccc2n1 [Example 52, (1S,2S)-2-(1H-benzo[d]imidazol-2-yl)-N—((R)-1-(quinolin-2-yl)ethyl)cyclopropane-1-carboxamide] | 100 to 1000 | 36 |  |  | 
11 | C[C@@H](NC(=O)[C@H]1C[C@@H]1c1nc2ccccc2[nH]1)c1ccc(C(=O)N(C)c2ccc(F)cc2)s1 [Example 62, Trans-5-((1R)-1-(2-(1H-benzo[d]imidazol-2-yl)cyclopropane-1-carboxamido)ethyl)-N-(4-fluorophenyl)-N-methylthiophene-2-carboxamide] | 100 to 1000 | 34 |  |  | 
12 | C[C@@H](NC(=O)[C@H]1C[C@@H]1c1nc2ccccc2[nH]1)c1cc2cc(F)ccc2s1 [Example 66, (1S,2S)-2-(1H-benzo[d]imidazol-2-yl)-N—((R)-1-(5-fluorobenzo[b]thiophen-2-yl)ethyl)cyclopropane-1-carboxamide] | ≤ 100 | 81 |  |  | 
13 | C[C@@H](NC(=O)[C@H]1C[C@@H]1c1nc2ccccc2[nH]1)c1ccc2c(c1)OC(F)(F)O2 [Example 73, (1S,2S)-2-(1H-benzo[d]imidazol-2-yl)-N—((R)-1-(2,2-difluorobenzo[d][1,3]dioxol-5-yl)ethyl)cyclopropane-1-carboxamide] | 100 to 1000 | 50 |  |  | 
14 | C[C@@H](NC(=O)[C@H]1C[C@@H]1c1nc2ccccc2[nH]1)c1cc2ccccc2o1 [Example 76, (1S,2S)-2-(1H-benzo[d]imidazol-2-yl)-N—((R)-1-(benzofuran-2-yl)ethyl)cyclopropane-1-carboxamide] | 100 to 1000 | 49 |  |  | 
15 | C[C@@H](NC(=O)[C@H]1C[C@@H]1c1nc2ccccc2[nH]1)c1ccc2c(c1)CCO2 [Example 78, (1S,2S)-2-(1H-benzo[d]imidazol-2-yl)-N—((R)-1-(2,3-dihydrobenzofuran-5-yl)ethyl)cyclopropane-1-carboxamide] | 100 to 1000 | 49 |  |  | 
16 | C[C@@H](NC(=O)[C@H]1C[C@@H]1c1nc2ccccc2[nH]1)c1cc2cc(Cl)ccc2o1 [Example 82, (1S,2S)-2-(1H-benzo[d]imidazol-2-yl)-N—((R)-1-(5-chlorobenzofuran-2-yl)ethyl)cyclopropane-1-carboxamide] | ≤ 100 | 88 |  |  | 
17 | C[C@@H](NC(=O)[C@H]1C[C@@H]1c1nc2ccccc2[nH]1)c1cc2cc(F)cc(F)c2o1 [Example 88, (1S,2S)-2-(1H-benzo[d]imidazol-2-yl)-N—((R)-1-(5,7-difluorobenzofuran-2-yl)ethyl)cyclopropane-1-carboxamide] | ≤ 100 | 37 |  |  | 
18 | C[C@@H](NC(=O)[C@H]1C[C@@H]1c1nc2ccccc2[nH]1)c1cc2ccccn2n1 [Example 93, (1S,2S)-2-(1H-benzo[d]imidazol-2-yl)-N—((R)-1-(pyrazolo[1,5-a]pyridin-2-yl)ethyl)cyclopropane-1-carboxamide] | 1000 to 10000 | 22 |  |  | 
19 | Cc1c([C@@H](C)NC(=O)[C@H]2C[C@@H]2c2nc3ccccc3[nH]2)oc2ccc(F)cc12 [Example 101, (1S,2S)-2-(1H-benzo[d]imidazol-2-yl)-N—((R)-1-(5-fluoro-3-methylbenzofuran-2-yl)ethyl)cyclopropane-1-carboxamide] | ≤ 100 | 73 |  |  | 
20 | CCn1c([C@H]2C[C@@H]2C(=O)N[C@H](C)c2cc3cc(F)ccc3o2)nc2ccccc21 [Example 102, (1S,2S)-2-(1-ethyl-1H-benzo[d]imidazol-2-yl)-N—((R)-1-(5-fluorobenzofuran-2-yl)ethyl)cyclopropane-1-carboxamide] | ≤ 100 | 74 |  |  | 
21 | CC(NC(=O)[C@H]1C[C@@H]1c1nc2ccccc2[nH]1)c1nc2cc(F)ccc2s1 (stereo partly drawn) [Example 104, (1S,2S)-2-(1H-benzo[d]imidazol-2-yl)-N-(1-(5-fluorobenzo[d]thiazol-2-yl)ethyl)cyclopropane-1-carboxamide] | ≤ 100 | 52 |  |  | 
22 | C[C@@H](NC(=O)[C@@H]1CCN(c2nc3ccccc3s2)C1)c1cc2cc(F)ccc2o1 [Example 126, (R)-1-(benzo[d]thiazol-2-yl)-N—((R)-1-(5-fluorobenzofuran-2-yl)ethyl)pyrrolidine-3-carboxamide] | 100 to 1000 |  |  |  | 
23 | O=C(NC1(c2cc3cc(F)ccc3o2)CC1)[C@H]1C[C@@H]1c1nc2ccccc2[nH]1 [Example 128, (1S,2S)-2-(1H-benzo[d]imidazol-2-yl)-N-(1-(5-fluorobenzofuran-2-yl)cyclopropyl)cyclopropane-1-carboxamide] | 100 to 1000 |  |  |  | 
24 | C[C@@H](NC(=O)C1CC1c1nc2ccccc2[nH]1)c1cnc(OCC(F)(F)F)cn1 (some centres unmarked) [RQ-00311651, reference compound] |  | 17 |  |  | 14

Source: patent US11420944B2, “Voltage-dependent t-type calcium channel blocker” (Nippon Chemiphar Co., Ltd., priority 2016, dated 2022)
